Laboratory results: patent publication US20060141010A1, “Coated preparations that contain at least one hydroformate” (Basf Aktiengesellschaft, priority 2003, published 2006)

Test system: one-day-old chickens
Assay: Feeding experiment using coated trisodium hydrogenformate preparations in a standard wheat-soy diet
Format: in vivo
Conditions: after 21 days, vs negative control (standard wheat-soy diet)
Method: A feeding experiment was carried out using one-day-old chickens. Trisodium hydrogenformate was coated with 0, 15 and 30% by weight hydrogenated soybean oil. Per dose, 2 repetitions were carried out, and 10 chickens were used in each feeding experiment.
A standard wheat-soy diet was used as negative control. The coated trisodium hydrogenformate preparations were added to the diet in exchange for cellulose (1% in the negative control).
Feeding results compared with the negative control [%] after 21 days.

[1] = 0.4 % by weight trisodium hydrogenformate in diet
[2] = 0.8 % by weight trisodium hydrogenformate in diet

O=CO.O=C[O-].O=C[O-].O=C[O-].[Na+].[Na+].[Na+] [trisodium hydrogenformate]
FCR (feed conversion rate), feeding results compared with the negative control [1]: +2%
Weight gain, feeding results compared with the negative control [1]: +2%
FCR (feed conversion rate), feeding results compared with the negative control [2]: +5%
Weight gain, feeding results compared with the negative control [2]: +2%
